Patent publication US12344613B2, “EGFR inhibitor for the treatment of cancer” (Hoffmann-La Roche Inc., priority 2019, dated 2025)

Molecular target: T1, EGFR TMLRCS (BaF3-TMLRCS cell line) (Homo sapiens, UniProt P00533, C797S/L858R/T790M)
T1 construct: host or cells: Ba/F3 (BaF3-TMLRCS), maintained under puromycin selection
Assay: HTRF Phospho EGFR TMLRCS Assay (Cellular)
Format: cell-based
Conditions: BaF3-TMLRCS cells, 4 hours incubation
Protocol: HTRF Phospho EGFR TMLRCS Assay (Cellular)
BaF3-TMLRCS cell line were obtained from Crownbio (San Diego, CA, USA). Cells were maintained at 37° C., 5% CO2 in RPMI ATCC (Gibco 31870)+2 mM Glutamine+0.5 μg/ml Puromycin supplemented with 10% fetal bovine serum (FBS) (Gibco).
Cells are transferred as above to Greiner Bio-One, Nr. 784-08 micro-titerplate at 20000 cells/well in 12.5 μl of growth medium/well after the plates had been pre-filled with 12.5 nl of DMSO solutions of the to be tested compounds (in dose response) or DMSO only. After spinning the plates at 300×g for 30 seconds the cells were incubated for 4 hours at 37 C, 5% CO2, 95% humidity. The cells were lysed by adding to the compound mix 4 μl/well of the supplemented lysis buffer (Cis-bio, Phospho-EGFR HTRF kit, 64EG1PEH), followed by incubation for 30 min at room temperature with shaking (400 rpm). The plates were then frozen and stored overnight at −80 C. […] The lidded plates were then incubated for 4 h at room temperature before reading the fluorescence emission at 616 and 665 nm using an Envision reader (Perkin Elmer). Data was analyzed in similar fashion as above using the normalized ratio of the 665 to 616 signals multiplied by 10000.

T1 sequence (P00533 25-1210 T790M/C797S/L858R): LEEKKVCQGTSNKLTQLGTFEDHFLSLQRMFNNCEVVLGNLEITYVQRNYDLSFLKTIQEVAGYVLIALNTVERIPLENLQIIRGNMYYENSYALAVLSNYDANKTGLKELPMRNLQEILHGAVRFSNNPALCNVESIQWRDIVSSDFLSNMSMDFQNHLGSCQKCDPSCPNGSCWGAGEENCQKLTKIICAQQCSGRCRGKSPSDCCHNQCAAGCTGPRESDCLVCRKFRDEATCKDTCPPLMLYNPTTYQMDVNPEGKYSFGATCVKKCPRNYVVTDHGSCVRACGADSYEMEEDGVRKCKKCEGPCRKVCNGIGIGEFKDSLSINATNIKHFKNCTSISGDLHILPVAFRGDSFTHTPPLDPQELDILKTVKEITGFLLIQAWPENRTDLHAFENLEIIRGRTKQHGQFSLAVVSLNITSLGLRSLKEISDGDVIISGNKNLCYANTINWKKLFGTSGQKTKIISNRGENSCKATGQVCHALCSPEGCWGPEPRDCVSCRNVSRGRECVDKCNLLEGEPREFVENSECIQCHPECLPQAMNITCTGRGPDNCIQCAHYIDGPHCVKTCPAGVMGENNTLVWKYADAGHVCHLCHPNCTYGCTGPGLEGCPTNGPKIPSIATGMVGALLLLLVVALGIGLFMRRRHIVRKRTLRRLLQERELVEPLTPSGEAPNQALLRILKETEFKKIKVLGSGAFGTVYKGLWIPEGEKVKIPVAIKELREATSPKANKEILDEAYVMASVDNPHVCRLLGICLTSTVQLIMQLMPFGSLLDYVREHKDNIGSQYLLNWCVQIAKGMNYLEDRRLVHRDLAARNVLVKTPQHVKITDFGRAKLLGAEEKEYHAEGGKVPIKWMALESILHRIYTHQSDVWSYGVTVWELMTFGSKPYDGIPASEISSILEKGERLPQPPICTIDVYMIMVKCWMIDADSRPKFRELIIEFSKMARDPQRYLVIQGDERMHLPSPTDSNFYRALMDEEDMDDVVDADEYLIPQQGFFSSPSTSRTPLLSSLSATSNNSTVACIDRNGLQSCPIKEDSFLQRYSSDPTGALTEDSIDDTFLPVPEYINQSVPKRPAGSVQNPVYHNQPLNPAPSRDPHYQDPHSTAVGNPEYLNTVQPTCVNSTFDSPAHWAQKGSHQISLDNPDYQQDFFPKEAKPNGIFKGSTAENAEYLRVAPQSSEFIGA

IC50: 5 nM
Compound: O=C(Nc1nccs1)C(c1ncn2c1C[C@@H](F)C2)n1cc2c(Cl)cc(-c3ccc(N4CCOCC4)cc3)c(Cl)c2n1 (stereo partly drawn) [Example 1, 2-[4,7-Dichloro-6-(4-morpholinophenyl)indazol-2-yl]-2-[(6R)-6-fluoro-6,7-dihydro-5H-pyrrolo[1,2-c]imidazol-1-yl]-N-thiazol-2-yl-acetamide]
